Counter-ions that a name gives are not always drawn.
Tests used:
harmaline induced tremor = settings: Japanese Patent Publication No. 125630/1977; cited from earlier work
[1] = animal experiments; U.S. Pat. No. 3,920,728; cited from earlier work
[2] = tested on: freezing phenomenon in parkinson's disease; settings: UK Patent Publication No. 2106388; cited from earlier work
orthostatic hypotension = settings: U.S. Pat. No. 4,330,558; cited from earlier work
[3] = tested on: quantity of spontaneous movement of mice; assay: Spontaneous movement of mice pretreated with PIH (Animex); type: in vivo
Experimental: Three mice as one group were put in a movement measuring box of Animex and quantity of spontaneous movements of the mice were measured at given intervals of time.
Thereafter, they gradually became calm and crouched after about 30-40 minutes resulting in much decrease in their spontaneous moving quantity. β-phenylisopropylhydrazine hydrochloride (Catron, trade name) (referred to as "PIH" hereinafter) which is a monoamine oxidase inhibitor (MAOI) was intraperitoneally administered to the mice in an amount of 50 mg/kg.
Separately, 200 mg/kg of DL-erythro-DOPS was intraperitoneally injected to the mice and the effects thereof were examined.
In FIG. 1 the axis of ordinates indicates the quantity of movement (counts/5 min.) and the axis of abscissae indicates the time (minute) from the beginning of measurement of the quantity of spontaneous movement which was after 30 minutes from administration of DL-erythro-DOPS.

[4] = tested on: Amine content in the brain; assay: Amine content in the brain of mice administered with erythro-DOPS; type: in vivo; settings: for Dopamine content in the brain / Noradrenaline (NA) content in the brain / Serotonin content in the brain: mean of three mice ±SD
Experimental: PIH (50 mg/kg) was previously administered to mice and after lapse of 17 hours, physiological saline or DL-erythro-DOPS (200 mg/kg) was intraperitoneally injected to the mice.
Amine content in the brain was measured after a lapse of 30 minutes from the injection.
The content was expressed as ng/g wet weight and shown as mean value of the three mice±SD.

[5] = tested on: Amine content in the brain; assay: Amine content in the brain of PIH administered mice; type: in vivo; settings: PIH 50 mg/kg i.p., 17 hours, mean of three mice ±SD
Experimental: A physiological saline or PIH (50 mg/kg) was intraperitoneally injected to mice and content of amine in the brain was measured after 17 hours.
The measurement was substantially in accordance with the method of Ogasawara et al (J. Chromatography 180, 119). The content was expressed as ng/g wet weight and shown as mean value of the three mice ±SD.

[6] = Acute oral toxicity (LD50); settings: mouse, in vivo
[7] = tested on: ptosis induced by tetrabenazine; assay: Ptosis induced by tetrabenazine; type: in vivo; settings: for effects of erythro-DOPS on combination use of a peripheral decarboxylase inhibitor: combination with erythro-DOPS; for Ptosis score: tetrabenazine 40 mg/kg i.p., 3 hrs, Mean ± S.E., N 6
Experimental: L-threo-DOPS (100 mg/kg and 200 mg/kg) was intraperitoneally injected at the same time with the intraperitoneal injection of tetrabenazine (40 mg/kg) and at 1 hr. after the intraperitoneal injection of benserazide or carbidopa.
The score of ptosis was measured by the method of Fukushima et al. (Arch. Int. Pharmacodyn. Therp. 229 163 1977) at 3 hrs. after the injection of tetrabenazine.

mania = settings: cited from earlier work
[8] = tested on: quantity of spontaneous movement of mice administered with tranylcypromine; assay: Spontaneous movement of mice administered with tranylcypromine; type: in vivo
Experimental: The same experimental system of measuring the quantity of spontaneous movement of mice as used in Experimental Example 1 was used in this Example.
In FIG. 3, the axis of ordinates indicates the quantity of spontaneous movement and the axis of abscissae indicates the lapse of time (minute) and the arrows indicate the time when administration was conducted.

[9] = tested on: quantity of spontaneous movement of mice increased by administration of methamphetamine; assay: Spontaneous movement of mice with methamphetamine; type: in vivo
Experimental: The same experimental system of measuring spontaneous movement quantity of mice as used in Experimental Example 1 was employed in this Example.
In FIG. 2, the axis of ordinates indicates the quantity of spontaneous movement and the axis of abscissa indicates the time (minute) when the time at which the administration of methamphetamine (1.4 mg/kg) alone or methamphetamine with DL-erythro-DOPS (200 mg/kg) was carried out was taken as zero point.

[10] = tested on: aromatic L-amino acid decarboxylase; settings: decarboxylation by aromatic L-amino acid decarboxylase; cited from earlier work
[11] = major tranquilizers; cited from earlier work
[12] = continuously in blood; cited from earlier work
[13] = PIH 50 mg/kg i.p., 16 hours after administration
[14] = PIH 50 mg/kg + physiological saline, 30 minutes after injection
[15] = PIH 50 mg/kg 17 hours before + DL-erythro-DOPS 200 mg/kg i.p., 30 minutes
[16] = DL-erythro-DOPS given 180 minutes after tranylcypromine
[17] = DL-erythro-DOPS 200 mg/kg i.p. together with methamphetamine 1.4 mg/kg

## N[C@H](C(=O)O)[C@H](O)c1ccc(O)c(O)c1 (relative stereo) [threo-DOPS]
Harmaline induced tremor
  effect on harmaline induced tremor: inhibitory effect
[1]
  antihypertensive or antidepressive effect: has an antihypertensive or antidepressive effect
[2]
  treatment of freezing phenomenon in parkinson's disease: clinically effective
Orthostatic hypotension
  treatment of orthostatic hypotension: clinically effective

## CC(Cc1ccccc1)NN (stereo not drawn) [PIH, β-phenylisopropylhydrazine hydrochloride]
[3]; [13]
  quantity of spontaneous movement: tendencies of increase in the spontaneous movement quantity
  time required before the mice became calm: increase in time required before the mice became calm
[4]; [14]
  Dopamine content in the brain: 941 ± 56 ng/g wet weight
  Noradrenaline (NA) content in the brain: 832 ± 88 ng/g wet weight
  Serotonin content in the brain: 942 ± 133 ng/g wet weight
[5]; **: P <0.05
  Dopamine content in the brain: 1026 ± 122 ng/g wet weight
[5]; *: P <0.005
  Noradrenaline (NA) content in the brain: 1085 ± 79 ng/g wet weight
  Serotonin content in the brain: 1260 ± 39 ng/g wet weight

## N[C@H](C(=O)O)[C@@H](O)c1ccc(O)c(O)c1 (relative stereo) [erythro-DOPS, erythro-3-(3,4-dihydroxyphenyl)serine]
[3]; summary of Experimental Examples 1 to 3
  suppression of psychomotor excitement: suppresses psychomotor excitement
[6]
  Toxicity: extremely low
[6]; po
  LD50: ≥ 5000 mg/kg
[4]; Experimental Examples 4 and 5
  change of contents of amines in the brain (NA, dopamine, serotonin): only NA significantly increases
[1]
  antihypertensive or antidepressive effect: has an antihypertensive or antidepressive effect
[7]; administration of erythro-DOPS
  ptosis induced by tetrabenazine: enhanced

## NC(=O)N1c2ccccc2C=Cc2ccccc21 [carbamazepine]
mania; human, in vivo
  antimanic effect: has an antimanic effect

## N[C@H](C(=O)O)[C@@H](O)c1ccc(O)c(O)c1 (relative stereo) [DL-erythro-DOPS, DL-erythro-3-(3,4-dihydroxyphenyl)serine]
[3]; DL-erythro-DOPS 200 mg/kg i.p., mice pretreated with PIH (50 mg/kg)
  quantity of spontaneous movement: conspicuous decrease in the quantity of spontaneous movement
[4]; [15]
  Dopamine content in the brain: 895 ± 52 ng/g wet weight
  Serotonin content in the brain: 821 ± 92 ng/g wet weight
[4]; PIH 50 mg/kg 17 hours before + DL-erythro-DOPS 200 mg/kg i.p., 30 minutes, *: P <0.005
  Noradrenaline (NA) content in the brain: 1476 ± 105 ng/g wet weight
[8]; [16]
  quantity of movement: began to decrease
  time after which the quantity of movement began to decrease: about 20 minutes
[8]; DL-erythro-DOPS given 180 minutes after tranylcypromine, then returned to original increased state
  duration of decrease in quantity of movement: 30 to 90 min
[9]; [17]
  action of methamphetamine to increase the quantity of spontaneous movement: retrained
  increase of the quantity of movement: not noticeable

## N[C@H](C(=O)O)[C@H](O)c1ccc(O)c(O)c1 [L-threo-DOPS]
[10]
  conversion to noradrenaline in vivo: converted to l-NA

## C[C@@](Cc1ccc(O)c(O)c1)(NN)C(=O)O [carbidopa]
[7]
  effects of erythro-DOPS on combination use of a peripheral decarboxylase inhibitor: significantly enhanced

## N[C@H](C(=O)O)[C@@H](O)c1ccc(O)c(O)c1 (racemic) [L-erythro-DOPS, L or DL-erythro-3-(3,4-dihydroxyphenyl)serine]
[10]
  conversion to noradrenaline in vivo: to d-NA
[7]; 100 mg/kg i.p. alone
  Ptosis score: 2.0 ± 0.4
[7]; 200 mg/kg i.p. alone
  Ptosis score: 2.3 ± 0.5

## N[C@H](C(=O)O)C(O)c1ccc(O)c(O)c1 (stereo partly drawn) [L-DOPS]
[10]
  conversion to noradrenaline in vivo: converted to noradrenaline

## O=C(CCCN1CCC(O)(c2ccc(Cl)cc2)CC1)c1ccc(F)cc1 [haloperidol]
[11]
  tranquilizing effects: strong tranquilizing effects

## CN[C@@H](C)Cc1ccccc1 [methamphetamine]
[9]; methamphetamine 1.4 mg/kg i.p.
  quantity of spontaneous movement: abruptly increased
  time to restoration to nearly the former state: 2 h
[9]; methamphetamine 1.4 mg/kg i.p., from the injection
  time after which quantity of spontaneous movement began to decrease: 50 min

## O=C(O)O [lithium carbonate]
mania; treatment with lithium carbonate
  time before a noticeable effect: 3 to 8 days

## CN(C)CCCN1c2ccccc2Sc2ccc(Cl)cc21 [Chloropromazine]
[11]
  tranquilizing effects: strong tranquilizing effects

## N[C@@H]1C[C@H]1c1ccccc1 (relative stereo) [tranylcyromine]
[8]; 50 mg/kg i.p.
  spontaneous movement: gradually increased
[8]; 50 mg/kg i.p., after administration, then maintained
  time to maximum spontaneous movement: 120 min

## lithium
[12]
  lithium concentration in blood at which lithium poisoning will occur: ≥ 2.0 mEq/l

## NC(CO)C(=O)NNCc1ccc(O)c(O)c1O (stereo not drawn) [benserazide]
[7]
  effects of erythro-DOPS on combination use of a peripheral decarboxylase inhibitor: significantly enhanced

## COc1ccc2c(c1)N(C[C@H](C)CN(C)C)c1ccccc1S2 [levomepromazine]
[11]
  tranquilizing effects: strong tranquilizing effects
